This is an account of results in patent publication US10722514B2 (FLX Bio, Inc., priority 2017, dated 2020).

The term IC50 denotes the concentration at which inhibition is half-maximal.

Where a name gives a salt, the structure may show the parent alone. Read-outs that look alike come from different tables or passages of the source.

In the assay the target is T1, recombinant full-length USP7 (Homo sapiens, UniProt Q93009).
T1 construct: A 25 μl reaction volume containing recombinant full-length USP7 (62 pM)
T1 sequence (Q93009 whole entry): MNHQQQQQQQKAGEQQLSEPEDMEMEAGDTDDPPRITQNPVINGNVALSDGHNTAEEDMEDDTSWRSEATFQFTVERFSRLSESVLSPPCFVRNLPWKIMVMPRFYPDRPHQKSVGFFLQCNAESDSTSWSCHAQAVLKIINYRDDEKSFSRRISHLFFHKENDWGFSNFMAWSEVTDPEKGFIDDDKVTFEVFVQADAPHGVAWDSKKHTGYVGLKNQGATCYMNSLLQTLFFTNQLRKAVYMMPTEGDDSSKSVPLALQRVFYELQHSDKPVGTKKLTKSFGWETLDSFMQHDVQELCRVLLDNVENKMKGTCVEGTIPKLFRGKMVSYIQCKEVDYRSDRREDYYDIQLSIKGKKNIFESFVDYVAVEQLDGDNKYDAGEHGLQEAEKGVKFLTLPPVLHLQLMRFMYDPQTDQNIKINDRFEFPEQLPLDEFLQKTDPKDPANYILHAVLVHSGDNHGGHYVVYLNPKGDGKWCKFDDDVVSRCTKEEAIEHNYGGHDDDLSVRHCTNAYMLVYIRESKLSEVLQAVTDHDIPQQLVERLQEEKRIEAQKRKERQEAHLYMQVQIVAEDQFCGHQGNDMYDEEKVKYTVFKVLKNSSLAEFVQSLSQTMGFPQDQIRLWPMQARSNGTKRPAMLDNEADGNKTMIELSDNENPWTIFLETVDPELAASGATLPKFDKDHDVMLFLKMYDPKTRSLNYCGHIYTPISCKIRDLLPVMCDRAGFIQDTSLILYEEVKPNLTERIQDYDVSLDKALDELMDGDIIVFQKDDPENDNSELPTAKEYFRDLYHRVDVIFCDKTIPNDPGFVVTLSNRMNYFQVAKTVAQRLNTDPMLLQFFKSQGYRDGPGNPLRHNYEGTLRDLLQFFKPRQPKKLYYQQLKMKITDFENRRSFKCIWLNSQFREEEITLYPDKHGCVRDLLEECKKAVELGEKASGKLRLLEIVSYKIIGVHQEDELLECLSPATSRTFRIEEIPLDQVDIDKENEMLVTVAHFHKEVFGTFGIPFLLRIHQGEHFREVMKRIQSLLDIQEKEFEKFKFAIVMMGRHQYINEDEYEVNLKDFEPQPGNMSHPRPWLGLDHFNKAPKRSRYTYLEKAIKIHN
Nature of the assay: USP7-mediated ubiquitin-rhodamine cleavage assay. The assay is classed as biochemical. The note with it: recombinant full-length USP7 62 pM, ubiquitin-rhodamine 100 nM, 1 hour reaction at room temperature. In short, it runs like this: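 IC50 values came from fluorescence measured after a 1 h room-temperature reaction of 62 pM enzyme with 100 nM ubiquitin-rhodamine, following 30 min compound preincubation; fits used four parameters.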

Setting [1] is: 30-minute incubation with compound, read-out: Potency: USP7 IC50.
Setting [2] is: 30-minute pre-incubation, read-out: Potency (USP7 IC50).

On to `Cc1cc(Cl)cc(-c2ccnc3cc([C@H](C)N4C(=O)CCC4=O)sc23)c1O[C@H]1CCCNC1` [Example 241, 1-((S)-1-(7-(5-Chloro-3-methyl-2-(((S)-piperidin-3-yl)oxy)phenyl)thieno[3,2-b]pyridin-2-yl)ethyl)pyrrolidine-2,5-dione], for which the half-inhibitory concentration (IC50) under setting [1] is under 1000 nM.
As to `Cc1cc(Cl)cc(-c2ccnc3cc(Cn4c(=O)ccn(C)c4=O)sc23)c1O[C@H]1CCNC[C@@H]1F` [Example 569], the IC50 under setting [2] is under 1000 nM.
Take `Cc1cc(Cl)cc(-c2ccnc3cc(Cn4c(=O)ccn(CC(F)(F)F)c4=O)sc23)c1OC1CC(N2CCC[C@H]2CO)C1` (stereo partly drawn) [Example 624, 3-[[7-[5-chloro-2-[3-[(2S)-2-(hydroxymethyl)pyrrolidin-1-yl]cyclobutoxy]-3-methyl-phenyl]thieno[3,2-b]pyridin-2-yl]methyl]-1-(2,2,2-trifluoroethyl)pyrimidine-2,4-dione dihydrochloride]: the IC50 under setting [2] is under 1000 nM.
Turning to `Cc1cc(Cl)cc(-c2ccnc3cc(CN4C(=O)CCC4=O)sc23)c1OC1CCCNC1C` (centres unmarked) [Example 419, 1-[[7-[5-chloro-3-methyl-2-[(2-methyl-3-piperidyl)oxy]phenyl]thieno[3,2-b]pyridin-2-yl]methyl]pyrrolidine-2,5-dione], under setting [2], the IC50 was under 1000 nM.
Regarding `Cc1cc(Cl)cc(-c2ccnc3cc(CN4C(=O)CCC4=O)sc23)c1O[C@@H]1CNC[C@@H]1C` [Example 105, 1-((7-(5-Chloro-3-methyl-2-(((3S,4S)-4-methylpyrrolidin-3-yl)oxy)phenyl)thieno[3,2-b]pyridin-2-yl)methyl)pyrrolidine-2,5-dione], the IC50 under setting [1] is under 1000 nM.
On the same count and under the same terms, under `Cc1cc(Cl)cc(-c2ccnc3cc(CN4C(=O)CCN(C)C4=O)sc23)c1OC1CCNCC1` [Example 203, 3-((7-(5-Chloro-3-methyl-2-(piperidin-4-yloxy)phenyl)thieno[3,2-b]pyridin-2-yl)methyl)-1-methyldihydropyrimidine-2,4(1H,3H)-dione] stands under 1000 nM.
Same read-out and setting: under `Cc1cc(C#N)cc(-c2ccnc3cc(CN4C(=O)C5C6CCC(C6)C5C4=O)sc23)c1O[C@@H]1CNC[C@@H]1F` (stereo partly drawn) [Example 112, 3-(2-((1,3-Dioxooctahydro-2H-4,7-methanoisoindol-2-yl)methyl)thieno[3,2-b]pyridin-7-yl)-4-(((3R,4S)-4-fluoropyrrolidin-3-yl)oxy)-5-methylbenzonitrile] stands under 1000 nM.
In the case of `Cc1cc(Cl)cc(-c2ccnc3c(F)c(CO)sc23)c1O[C@@H]1CNC[C@@H]1F` [Example 407, [7-[5-chloro-2-[(3R,4S)-4-fluoropyrrolidin-3-yl]oxy-3-methyl-phenyl]-3-fluoro-thieno[3,2-b]pyridin-2-yl]methanol], under setting [2], the IC50 is under 1000 nM.
Take `Cc1cc(Cl)cc(-c2ccnc3cc(CN4C(=O)CN(C)C4=O)sc23)c1OC1CCNCC1` [Example 224, 3-((7-(5-Chloro-3-methyl-2-(piperidin-4-yloxy)phenyl)thieno[3,2-b]pyridin-2-yl)methyl)-1-methylimidazolidine-2,4-dione]: the concentration for half-maximal inhibition (IC50) under setting [1] fell in the range of 1000 to 10000 nM.
The same measure, in the same setting: under `Cc1cc(Cl)cc(-c2ncnc3cc(CN4C(=O)CCC4=O)sc23)c1O[C@@H]1CNC[C@@H]1F` [Example 113, 1-((4-(5-Chloro-2-(((3R,4S)-4-fluoropyrrolidin-3-yl)oxy)-3-methylphenyl)thieno[3,2-d]pyrimidin-6-yl)methyl)pyrrolidine-2,5-dione] stands 1000 to 10000 nM.
Consider `Cc1cc(Cl)cc(-c2ccnc3cc(Cn4c(=O)ccn(C)c4=O)sc23)c1O[C@H]1CCCNCC1` [Example 8, (S)-3-((7-(2-(Azepan-4-yloxy)-5-chloro-3-methylphenyl)thieno[3,2-b]pyridin-2-yl)methyl)-1-methylpyrimidine-2,4(1H,3H)-dione], for which the half-inhibitory concentration (IC50) under setting [1] is under 1000 nM.
For `Cc1cc(Cl)cc(-c2ccnc3cc(Cn4c(=O)ccn(C)c4=O)sc23)c1OC1CCNCC1(C)C` (centres unmarked) [Example 546, 3-[[7-[5-chloro-2-[(3,3-dimethyl-4-piperidyl)oxy]-3-methyl-phenyl]thieno[3,2-b]pyridin-2-yl]methyl]-1-methyl-pyrimidine-2,4-dione; 2,2,2-trifluoroacetic acid], the IC50 under setting [2] was under 1000 nM.
As to `Cc1cc(Cl)cc(-c2ccnc3cc(Cn4c(=O)ccn(CC(F)(F)F)c4=O)sc23)c1OC1CCNCC1` [Example 568, 3-[[7-[5-chloro-3-methyl-2-(4-piperidyloxy)phenyl]thieno[3,2-b]pyridin-2-yl]methyl]-1-(2,2,2-trifluoroethyl)pyrimidine-2,4-dione], under setting [2], the IC50 was under 1000 nM.
As for `Cc1cc(Cl)cc(-c2ccnc3cc(Cn4c(=O)ccn(CC(F)(F)F)c4=O)sc23)c1O[C@@H]1CCNC[C@@H]1C` [Example 549, 3-[[7-[5-chloro-3-methyl-2-[[(3S,4R)-3-methyl-4-piperidyl]oxy]phenyl]thieno[3,2-b]pyridin-2-yl]methyl]-1-(2,2,2-trifluoroethyl)pyrimidine-2,4-dione], the concentration for half-maximal inhibition (IC50) under setting [2] was under 1000 nM.
Regarding `Cc1cc(Cl)cc(-c2ccnc3cc(Cn4c(=O)ccn(C)c4=O)sc23)c1O[C@@H]1CC[C@@](C)(N)C1` [Example 518, 3-[[7-[2-[(1R,3R)-3-amino-3-methyl-cyclopentoxy]-5-chloro-3-methyl-phenyl]thieno[3,2-b]pyridin-2-yl]methyl]-1-methyl-pyrimidine-2,4-dione; 2,2,2-trifluoroacetic acid], under setting [2], the IC50 is under 1000 nM.
In the case of `O=C(O)C(F)(F)F.[2H]C1([2H])C(=O)N(Cc2cc3nccc(-c4cc(Cl)cc(C)c4O[C@@H]4CNC[C@@H]4F)c3s2)C(=O)C1([2H])[2H]` [Example 384, 1-[[7-[5-chloro-2-[(3R,4S)-4-fluoropyrrolidin-3-yl]oxy-3-methyl-phenyl]thieno[3,2-b]pyridin-2-yl]methyl]-3,3,4,4-tetradeuterio-pyrrolidine-2,5-dione; 2,2,2-trifluoroacetic acid], under setting [1], the IC50 is under 1000 nM.
Turning to `Cc1cc(Cl)cc(-c2ccnc3cc(Cn4c(=O)c(C)cn(C)c4=O)sc23)c1O[C@H]1CCCNC1` [Example 478, 3-[[7-[5-chloro-3-methyl-2-[[(3S)-3-piperidyl]oxy]phenyl]thieno[3,2-b]pyridin-2-yl]methyl]-1,5-dimethyl-pyrimidine-2,4-dione; 2,2,2-trifluoroacetic acid], under setting [2], the concentration for half-maximal inhibition (IC50) is under 1000 nM.
Regarding `Cc1cc(Cl)cc(-c2ccnc3cc(Cn4c(=O)ccn(CC(F)(F)F)c4=O)sc23)c1O[C@@H]1CCCN[C@@H]1C` [Example 621, 3-[[7-[5-chloro-3-methyl-2-[[(2R,3R)-2-methyl-3-piperidyl]oxy]phenyl]thieno[3,2-b]pyridin-2-yl]methyl]-1-(2,2,2-trifluoroethyl)pyrimidine-2,4-dione; 2,2,2-trifluoroacetic acid], the IC50 under setting [2] is under 1000 nM.
With `Cn1ccc(=O)n(Cc2cc3nccc(-c4cc(Cl)cc(C(F)F)c4O[C@H]4CCCNC4)c3s2)c1=O` [Example 498, 3-[[7-[5-chloro-3-(difluoromethyl)-2-[[(3S)-3-piperidyl]oxy]phenyl]thieno[3,2-b]pyridin-2-yl]methyl]-1-methyl-pyrimidine-2,4-dione], the IC50 under setting [2] was under 1000 nM.
Regarding `Cc1cc(Cl)cc(-c2ccnc3cc(CN4C(=O)CCC4=O)sc23)c1OC1CNCCOC1` (centres unmarked) [Example 271, 1-((7-(2-((1,4-Oxazepan-6-yl)oxy)-5-chloro-3-methylphenyl)thieno[3,2-b]pyridin-2-yl)methyl)pyrrolidine-2,5-dione], the 50% inhibitory concentration (IC50) under setting [1] is 1000 to 10000 nM.
